Legend:
Experiment in all cases: relative viability (nuclei count vs DMSO), 5 days (fraction); higher = more cells survive
Metformin + Luminespib = compound: CN(C)C(=N)NC(=N)N [Metformin] + CCNC(=O)c1noc(-c2cc(C(C)C)c(O)cc2O)c1-c1ccc(CN2CCOCC2)cc1 [Luminespib] (partner 0.01 µM)
Procedure, shortened: (§1)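 After 5 days of treatment, lung cancer cells in 1536-well plates were fixed and stained in a single step (final 0.05% Triton X-100, 1% formaldehyde, 1 ug/ml Hoechst) and their nuclei counted on 4× images. Treatment had been applied by pin tool the day after seeding as one drug alone or as a fixed anchor-drug dose with five library-drug doses (not always all listed) in √10 steps. Relative viability is the nuclei count of treated wells divided by that of vehicle wells, and values are medians of duplicate plates.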

Metformin + Pictilisib = compound: CN(C)C(=N)NC(=N)N [Metformin] + CS(=O)(=O)N1CCN(Cc2cc3nc(-c4cccc5[nH]ncc45)nc(N4CCOCC4)c3s2)CC1 [Pictilisib] (partner 1 µM)
Procedure, shortened: as §1

Apatinib + OSI-027 = compound: N#CC1(c2ccc(NC(=O)c3cccnc3NCc3ccncc3)cc2)CCCC1 [Apatinib] + COc1cccc2cc(-c3nc([C@H]4CC[C@H](C(=O)O)CC4)n4ncnc(N)c34)[nH]c12 [OSI-027] (partner 0.5 µM)
Procedure, shortened: as §1

Apatinib + AZD7762 = compound: N#CC1(c2ccc(NC(=O)c3cccnc3NCc3ccncc3)cc2)CCCC1 [Apatinib] + NC(=O)Nc1cc(-c2cccc(F)c2)sc1C(=O)N[C@H]1CCCNC1 [AZD7762] (partner 0.2 µM)
Procedure, shortened: as §1

Cell Line | relative viability (Metformin + Luminespib; first compound 10 µM) | relative viability (Metformin + Luminespib; first compound 31.62 µM) | relative viability (Metformin + Luminespib; first compound 100 µM) | relative viability (Metformin + Luminespib; first compound 316.23 µM) | relative viability (Metformin + Luminespib; first compound 1000 µM) | relative viability (Metformin + Pictilisib; first compound 10 µM) | relative viability (Metformin + Pictilisib; first compound 31.62 µM) | relative viability (Metformin + Pictilisib; first compound 100 µM) | relative viability (Metformin + Pictilisib; first compound 316.23 µM) | relative viability (Metformin + Pictilisib; first compound 1000 µM) | relative viability (Apatinib + OSI-027; first compound 0.08 µM) | relative viability (Apatinib + OSI-027; first compound 0.253 µM) | relative viability (Apatinib + OSI-027; first compound 0.8 µM) | relative viability (Apatinib + OSI-027; first compound 2.53 µM) | relative viability (Apatinib + OSI-027; first compound 8 µM) | relative viability (Apatinib + AZD7762; first compound 0.08 µM) | relative viability (Apatinib + AZD7762; first compound 0.253 µM) | relative viability (Apatinib + AZD7762; first compound 0.8 µM) | relative viability (Apatinib + AZD7762; first compound 2.53 µM) | relative viability (Apatinib + AZD7762; first compound 8 µM)
PC-14 | 0.373 | 0.18 | 0.202 | 0.289 | 0.502 | 0.577 | 0.811 | 0.654 | 0.734 | 0.776 | 0.805 | 0.956 | 0.596 | 0.748 | 0.602 | 0.359 | 0.348 | 0.258 | 0.167 | 0.267
HCC-78 |  |  |  |  |  | 0.291 | 0.257 | 0.201 | 0.159 | 0.244 | 0.355 | 0.298 | 0.384 | 0.34 | 0.332 | 0.553 | 0.766 | 0.666 | 0.539 | 0.638
NCI-H322M | 0.831 | 0.884 | 1.05 | 0.912 | 0.826 | 0.471 | 0.52 | 0.491 | 0.469 | 0.43 | 0.551 | 0.533 | 0.52 | 0.518 | 0.46 | 0.553 | 0.58 | 0.549 | 0.471 | 0.471
NCI-H2023 | 0.649 | 0.725 | 0.711 | 0.67 | 0.676 |  | 0.269 | 0.262 |  | 0.252 | 0.499 | 0.42 | 0.342 | 0.296 | 0.207 |  |  |  |  | 
NCI-H1651 | 1.19 | 1.3 | 1.06 | 0.828 | 0.989 | 0.762 | 0.887 | 0.674 | 0.883 | 0.876 | 0.782 | 0.867 | 0.647 | 0.683 | 0.599 | 0.325 | 0.514 | 0.44 | 0.322 | 0.324
HCC-15 |  | 0.235 | 0.348 | 0.35 | 0.321 | 0.625 | 0.789 | 0.746 | 0.75 | 0.823 | 0.719 | 0.691 | 0.658 | 0.628 | 0.509 | 1.13 | 1.23 | 1.12 | 1.15 | 1.05
NCI-H3122 | 0.076 | 0.0878 | 0.0846 | 0.0862 | 0.113 | 0.488 | 0.588 | 0.459 | 0.437 | 0.5 | 0.952 | 0.64 | 0.969 | 0.955 | 0.845 | 0.983 | 0.988 | 1.02 | 0.946 | 0.933
LOU-NH91 | 0.343 | 0.404 | 0.316 | 0.344 | 0.376 | 0.555 | 0.469 | 0.53 | 0.496 | 0.549 | 0.636 | 0.667 | 0.599 | 0.619 | 0.676 | 0.749 | 0.724 | 0.75 | 0.677 | 0.701
LXF-289 | 0.693 | 0.683 | 0.724 | 0.625 | 0.621 | 0.73 | 0.685 | 0.746 | 0.661 | 0.76 | 0.81 | 0.849 | 0.745 | 0.763 | 0.718 | 1.13 | 1.1 | 1.09 | 1.02 | 1.02
